# Data reported in patent US20230233484A1, “USE OF VITAMIN K IN PREVENTING OR COU[…]-19 DISEASE AND DIAGNOSTIC TEST TO ESTIMATE THE RISK OF […] DISEASE OR MORTALITY BY COVID-19” (EMPHYSEMA SOLUTIONS BV, priority 2020, published 2023).
# Experiments:
# [1] = test system: Covid-19; experiment: Ongoing intervention trial of vitamin K administration in Covid-19 patients; type: in vivo; conditions: twelve Covid-19 patients have received treatment
# From the text: (§1) Procoagulant prothrombin activation by vitamin K remained preserved in the majority of Covid-19 patients. Impaired MGP activation was linked to accelerated elastic fiber degradation and premorbid vascular calcifications. About fifty percent of total anticoagulant protein S is activated extra-hepatically by vitamin K, and this activation is likely also impaired during Covid-19. Given the fact that procoagulant activity remains intact, this is compatible with the increased thrombogenicity that is frequently observed in severe Covid-19. Based on our findings we expect that increasing MGP and protein S activity by vitamin K administration will considerably improve Covid-19 outcomes. An intervention trial to confirm this hypothesis is currently ongoing.
# [2] = test system: Covid-19; experiment: Cohort of hospitalized COVID-19 patients treated with vitamin K, compared with previous COVID-19 cohorts; type: in vivo; conditions: hospitalized COVID-19 cohort treated with vitamin K vs previous COVID-19 cohorts from the same hospital
# From the text: as §1
# [3] = test system: dp-ucMGP; conditions: vitamin K supplementation; cited from earlier work
# Chain of dp-ucMGP (P08493 20-96): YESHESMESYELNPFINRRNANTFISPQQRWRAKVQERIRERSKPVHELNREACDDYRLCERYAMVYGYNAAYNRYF
substance,measurement,setting,value
vitamin K,safety issues,[1],no unexpected safety issues
same,ICU admission rate,[2],significantly lower
same,mortality,[2],significantly lower
same,effect on dp-ucMGP levels,[3],reducing effect
